Measurements: patent US20220411811A1, “SYNTHETIC TOOLKIT FOR PLANT TRANSFORMATION” (priority 2021, published 2022)

System: A. tumefaciens NTL4
Assay type: cell-based, Agrobacterium tumefaciens
Settings: for highest expression level (green fluorescence intensity, sfgfp reporter): highest induction concentration 10^3 μM; for basal expression level (green fluorescence intensity, sfgfp reporter): lowest induction concentration 10^−3 μM
Description: GFP measurement. An inoculum of A. tumefaciens was grown overnight to stationary phase and then transferred to fresh media at a 1:100 dilution. The new inocula were added with inducers to a final concentration of 1×10^−3 to 1×10^3 μmol/ml when their optical density at 600 nm (OD600) reached 0.5. After 6 h of incubation, cells were collected and resuspended in 1×PBS buffer. Then 100 μL of suitably diluted cultures were added into 96-well microtiter plates. OD600 and relative green fluorescence were measured by a BioTek® microplate reader H1. Congo red plate assay. The dye was dissolved in ddH2O at 20 mg ml^−1 and passed through 0.2 μm filters immediately. Four ml of filtered Congo Red was added per L (final concentration: 80 μg/ml) to generate LB-CR agar medium. The overnight cultured cultures were diluted to an OD600 of 1.0. 10 μl cultures were plated on LB-CR agar with appropriate antibiotics, followed by incubation at 30° C. for 24 hours.
A reliable induction system is required to achieve precise control of gene expression. […] An ori from the broad host-range plasmid pBBR1, which propagates in both E. coli and A. tumefaciens, was utilized for the origin of replication (Szpirer et al., J Bacteriol. 183:2101-2110, 2001). To evaluate the performance of these inducible systems, a green fluorescence protein gene (sfgfp) was utilized as a reporter gene, and placed under the control of the corresponding inducible promoters, Ptac, Pcym, Pvan, PBAD, Pug and Psal, respectively. The repressor genes of the inducible systems (lacI, cymR, vanR, araE, ttgR and nahR) were driven by a common constitutive promoter (Pcon). The resulting inducible “expression circuits” were transformed into A. tumefaciens NTL4.
To evaluate these induction systems, green fluorescence intensities of cells transformed with the plasmids were measured at various concentrations of inducers, ranging from 10^−3 to 10^3 μM.

Row | Structure (SMILES) | highest expression level (green fluorescence intensity, sfgfp reporter) | basal expression level (green fluorescence intensity, sfgfp reporter)
1 | CC(C)S[C@@H]1O[C@H](CO)[C@H](O)[C@H](O)[C@H]1O [IPTG, β-d-1-thiogalactopyranoside] | 5.2×10^5 | 6.6×10^4
2 | O=C1C[C@@H](c2ccc(O)cc2)Oc2cc(O)cc(O)c21 [Nar, naringenin] | 1.2×10^4 | 1.8×10^2
3 | CC(C)c1ccc(C(=O)O)cc1 [Cum, cumic acid] | 3×10^4 | 1.4×10^2
4 | O=C[C@@H](O)[C@H](O)[C@H](O)CO [Ara, arabinose] | 1.8×10^3 | 5.5×10^2
5 | COc1cc(C(=O)O)ccc1O [Van, vanillic acid] | 7.7×10^4 | 3.1×10^2
